From US20040082664A1, “Derivatives of hydroxyphenyl, a method for preparing thereof and their pharmaceutical composition” (priority 2002, published 2004) come the findings set out here.

In experiment [1] the target is T1, GST-fused lck SH2 domain (Homo sapiens, UniProt P06239).
T1 construct: GST (Glutathione transferase)-fused lck SH2 domain
The experiment is described as follows: Inhibition of in vitro binding of lck SH2 domain to its cognate pYEEI peptide (BIAcore 2000). The conditions noted are these: IC50 class for inhibition of GST-lckSH2 binding to immobilized biotinylated […]pYEEIPI peptide; read-out: BOND DEGREE WITH SH2 OF 1ck. The procedure: The present inventors investigated the inhibition activity of phenyl derivatives on the interaction of GST (Glutathione transferase)-fused lck SH2 domain and a peptide […]pYEEIPI (comprising the sequence PYEEI, a cognate peptide of Lck SH2) by using a real time sensorgram (BIAcore 2000).
At first, the biotinylated peptide was fixed on the surface of BIAcore analysis apparatus and then GST-lckSH2 protein was injected over the surface of the immobilized peptides. The binding of GST-lck SH2 with the peptide is represented as the resonance units (referred as “RU” hereinafter) and 1,000 RU corresponds to a change in surface concentration of 1 ng/mm^2. The binding of GST-lck with the fixed peptide causes the change of refractory index, leading to the increase of RU. In the mean time, when the binding of GST-lck with the fixed peptide is inhibited, RU decreases. Those results are represented in Table 1.
On the technique in general: Surface plasmon resonance follows binding to a sensor surface in real time, without labels.

The subject of experiment [2] is collagen-induced rheumatoid arthritis. As to the kind of experiment: Inhibition of collagen-induced rheumatoid arthritis in DBA1/LacJ mice. Format: in vivo, mouse. On the set-up: key: sum of 4 leg scores (0-4 each), max 16. The following applies: maximum 16, mean ± standard deviation. The procedure:
After 2 weeks, booster immunization was carried out with 50 μg C II/IFA. From the 3rd week after primary immunization, compounds of the present invention were injected daily into peritoneal cavities of 6-8 mice per group for 15-20 days.
The vehicle control groups were injected daily with 100 μl of 5% ethanol-olive oil mixture in total 15-20 times. Widely used anti-rheumatic drug, Methotrexate, was dissolved in PBS and then injected to mice at 1 mg/kg/day every other day in total 8-10 times. Meanwhile, the compounds of the invention were dissolved in ethanol and then mulsified in olive oil, in which the final ethanol concentration was adjusted to 5% and the compounds of this invention was 50 mg/kg/day.
From the 3rd week after primary immunization, the extent of edema and the joint swelling was monitored everyday to determine arthritic index. Arthitic index is the sum of the arthritic scores of all 4 legs and, therefore, maximum arthritis index of 16 can be achieved (e.g., [4 (maximum arthritic score)/leg]×[4 legs/mouse]=16 (maximum arthritis index/mouse)). […] was presented by the mean arthritis index±standard deviation of each mouse group.

The subject of experiment [3] is IL-2 promoter. The experiment is described as follows: IL-2 promoter luciferase reporter assay in anti-CD3 activated Jurkat cells. Format: cell-based. The following applies: Homo sapiens, TCR-induced (anti-CD3) IL-2 promoter luciferase, 2 h pre-incubation. The procedure:
In order to confirm whether the compounds of the invention can pass through a cell membrane and inhibit the expression of IL-2 gene leading to T-cell proliferation, the present inventors firstly confirmed T-cell activity by detecting the activity of the luciferase fused on the downstream of IL-2 promoter.
To investigate the activity of IL-2 promoter, Jurkat cells (1×10^6) were transfected with a IL-2 reporter plasmids using Superfect™ (Qiagen Inc.). After 24 hours of transfection, Jurkat cells were pre-incubated with compounds of various concentrations (1 uM-50 uM) for 2 hours and further cultured on 35mm plate pre-coated with 5 ug/ml of anti-CD3 antibody, resulting in T cell activation. The luciferase activity was measured using Berthold luminometer LB953. The IC50 (50% inhibition concentration) of the compounds of the invention on TCR-induced IL-2 promoter activation are shown in Table 2.

Setting [4] is: 50 mg/kg/day i.p. daily, day 15 after treatment (day 36 after primary immunization), sum of scores of four legs.

T1 sequence (P06239 127-224 limits assumed): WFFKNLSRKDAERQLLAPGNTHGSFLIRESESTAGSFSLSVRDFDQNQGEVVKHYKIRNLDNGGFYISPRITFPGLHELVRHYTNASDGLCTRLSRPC

Turning to `COC(=O)[C@H](Cc1ccc(O)c(O)c1)NC(=S)/C=C/c1ccc(O)c(O)c1` [Example 22], the IC50 in experiment [1] was 25 to 50 µM; in experiment [3], 13.9 µM. Besides, in experiment [2] (setting [4]), the Arthritis index stood at 6.9 ± 1.2.

On to `CC(C)OC(=O)[C@H](Cc1ccc(O)c(O)c1)N(C)C(=O)/C=C/c1ccc(O)c(O)c1` [Example 40, 3-(3,4-dihydroxy-phenyl)-(S)-2-{[3-trans-(3,4-dihydroxy-phenyl)-acryloyl]-methyl-amino}-propionic acid isopropyl ester], for which the results for the IC50 in experiment [1] and in experiment [3] were 10 to 25 µM and 8.7 µM, respectively. The Arthritis index in experiment [2] (setting [4]) was 5.9 ± 0.4.

In the case of `CCCOC(=O)[C@@H](Cc1ccc(O)c(O)c1)NC(=O)/C=C/c1ccc(O)c(O)c1` [Example 4, 3-(3,4-dihydroxy-phenyl)-(R)-2-[3-trans-(3,4-dihydroxy-phenyl)-acryloylamino]-propionic acid propyl ester], the IC50 in experiment [1] was below 10 µM; in experiment [3], 7.8 µM. Also, the Arthritis index in experiment [2] (setting [4]) was 5.6 ± 0.5.

As to `CCOC(=O)[C@@H](Cc1ccc(O)c(O)c1)NC(=O)/C=C/c1ccc(O)c(O)c1` [Example 3, 3-(3,4-dihydroxy-phenyl)-(R)-2-[3-trans-(3,4-dihydroxy-phenyl)-acryloylamino]-propionic acid ethyl ester], the IC50 in experiment [1] is below 10 µM; in experiment [3], 4.8 µM. This compound also yielded an Arthritis index in experiment [2] (setting [4]) of 4.5 ± 0.8.

For `CC(C)(C)OC(=O)[C@@H](Cc1ccc(O)c(O)c1)NC(=S)/C=C/c1ccc(O)c(O)c1` [Example 20, 3-(3,4-dihydroxy-phenyl)-(R)-2-[3-trans-(3,4-dihydroxy-phenyl)-thioacrylolamino]-propionic acid tert-butyl ester], the IC50 was 25 to 50 µM in experiment [1] and 21.4 µM in experiment [3]. This compound registered an Arthritis index in experiment [2] (setting [4]) of 6.7 ± 0.4.

Consider `CN(C(=O)/C=C/c1ccc(O)c(O)c1)[C@H](Cc1ccc(O)c(O)c1)C(=O)O` [Example 30], for which the IC50 is 25 to 50 µM in experiment [1] and 15.8 µM in experiment [3]. The Arthritis index in experiment [2] (setting [4]) is reported as 6.5 ± 0.6.

As to `CN(C(=O)/C=C/c1ccc(O)c(O)c1)[C@H](Cc1ccc(O)c(O)c1)C(N)=O` [Example 35, N-[l-carbamoyl-2-(3,4-dihydroxy-phenyl)-ethyl]-(R)-3-trans-(3,4-dihydroxy-phenyl)-N-methyl-acrylamide], the IC50 in experiment [1] was 10 to 25 µM; in experiment [3], 9.7 µM. For the same compound, in experiment [2] (setting [4]), the Arthritis index came to 6.8 ± 1.9.

For `O=C(O)[C@@H](Cc1ccc(O)c(O)c1)NC(=S)/C=C/c1ccc(O)c(O)c1` [Example 16, 3-(3,4-dihydroxy-phenyl)-(R)-2-[3-trans-(3,4-dihydroxy-phenyl)-thioacryloylamino]-propionic acid], the IC50 in experiment [1] is 25 to 50 µM; in experiment [3] it was 6.7 µM. In experiment [2] (setting [4]), this compound returned an Arthritis index of 7.2 ± 1.2.

For `CCOC(=O)[C@@H](Cc1ccc(O)c(O)c1)NC(=S)/C=C/c1ccc(O)c(O)c1` [Example 17, 3-(3,4-dihydroxy-phenyl)-(R)-2-[3-trans-(3,4-dihydroxy-phenyl)-thioacryloylamino]-propionic acid ethyl ester], the figures for the IC50 in experiment [1] and in experiment [3] were 10 to 25 µM and 4.6 µM, respectively. In experiment [2] (setting [4]), this compound yielded an Arthritis index of 5.4 ± 0.7.

As for `NC(=O)[C@@H](Cc1ccc(O)c(O)c1)NC(=O)/C=C/c1ccc(O)c(O)c1` [Example 7], the IC50 was below 10 µM in experiment [1] and 2.4 µM in experiment [3]. In addition, the Arthritis index in experiment [2] (setting [4]) is given as 4.3 ± 1.5.

With `CC(C)OC(=O)[C@@H](Cc1ccc(O)c(O)c1)N(C)C(=O)/C=C/c1ccc(O)c(O)c1` [Example 33, 3-(3,4-dihydroxy-phenyl)-(R)-2-{[3-trans-(3,4-dihydroxy-phenyl)-acryloyl]-methyl-amino}-propionic acid isopropyl ester], the IC50 was 10 to 25 µM in experiment [1] and 7.8 µM in experiment [3]. Also, the Arthritis index in experiment [2] (setting [4]) is given as 5.7 ± 0.9.

Regarding `CC(C)OC(=O)[C@@H](Cc1ccc(O)c(O)c1)NC(=O)/C=C/c1ccc(O)c(O)c1` [Example 5, 3-(3,4-dihydroxy-phenyl)-(R)-2-[3-trans-(3,4-dihydroxy-phenyl)-acryloylamino]-propionic acid isopropyl ester], the IC50 in experiment [1] is below 10 µM; in experiment [3] it was 6.5 µM. The same compound gave an Arthritis index in experiment [2] (setting [4]) of 4.9 ± 1.2.

As for `NC(=O)[C@@H](Cc1ccc(O)c(O)c1)NC(=S)/C=C/c1ccc(O)c(O)c1` [Example 21, 3-(3,4-dihydroxy-phenyl)-(R)-2-[3-trans-(3,4-dihydroxy-phenyl)-thioacryloylamino]-propioneamide], the IC50 in experiment [1] is 10 to 25 µM; in experiment [3], 7.8 µM. This compound also gave an Arthritis index in experiment [2] (setting [4]) of 5.8 ± 1.3.

In the case of `CCOC(=O)[C@@H](Cc1ccc(O)c(O)c1)N(C)C(=O)/C=C/c1ccc(O)c(O)c1` [Example 31], the IC50 is 10 to 25 µM in experiment [1] and 8.9 µM in experiment [3]. Besides, the Arthritis index in experiment [2] (setting [4]) was found to be 5.9 ± 2.1.

For the compound `CN(C(=O)/C=C/c1ccc(O)c(O)c1)[C@H](Cc1ccc(O)c(O)c1)C(=O)OC(C)(C)C` [Example 34, 3-(3,4-dihydroxy-phenyl)-(R)-2-{[3-trans-(3,4-dihydroxy-phenyl)-acryloyl]-methyl-amino}-propionic acid tert-butyl ester], the figures for the IC50 in experiment [1] and in experiment [3] were 25 to 50 µM and 14.9 µM, respectively. The compound also displayed an Arthritis index in experiment [2] (setting [4]) of 6.3 ± 0.8.

On to `CCOC(=O)[C@H](Cc1ccc(O)c(O)c1)N(C)C(=O)/C=C/c1ccc(O)c(O)c1` [Example 38, 3-(3,4-dihydroxy-phenyl)-(S)-2-{[3-trans-(3,4-dihydroxy-phenyl)-acryloyl]-methyl-amino}-propionic acid ethyl ester], for which the IC50 is 10 to 25 µM in experiment [1] and 11 µM in experiment [3]. The compound further had an Arthritis index in experiment [2] (setting [4]) of 5.5 ± 1.3.

As to `CN(Cc1cnc2nc(N)nc(N)c2n1)c1ccc(C(=O)N[C@@H](CCC(=O)O)C(=O)O)cc1` [MTX, methotrexate, reference compound], the Arthritis index in experiment [2] (Methotrexate 1 mg/kg/day every other day in PBS, day 15 after treatment) came to 4.0 ± 1.1.

On to `COC(=O)[C@@H](Cc1ccc(O)c(O)c1)NC/C=C/c1ccc(O)c(O)c1` [Example 53, 3-(3,4-dihydroxy-phenyl)-2-[3-(3,4-dihydroxy-phenyl)-arylamino]-propionic acid methyl ester], for which, in experiment [1], the IC50 lay within 25 to 50 µM.

Take `CC(C)OC(=O)[C@@H](Cc1ccc(O)c(O)c1)NC(=S)/C=C/c1ccc(O)c(O)c1` [Example 19, 3-(3,4-dihydroxy-phenyl)-(R)-2-[3-trans-(3,4-dihydroxy-phenyl)-thioacryloylamino]-propionic acid isopropyl ester]: the values for the IC50 in experiment [1] and in experiment [3] were 10 to 25 µM and 8.9 µM, respectively. Besides, the Arthritis index in experiment [2] (setting [4]) was 5.1 ± 1.1.

Consider `CC(C)(C)OC(=O)[C@@H](Cc1ccc(O)c(O)c1)NC(=O)/C=C/c1ccc(O)c(O)c1` [Example 6, 3-(3,4-dihydroxy-phenyl)-(R)-2-[3-trans-(3,4-dihydroxy-phenyl)-acryloylamino]propionic acid tert-butyl ester], for which the IC50 in experiment [1] is 10 to 25 µM; in experiment [3] it was 7.8 µM. In experiment [2] (setting [4]), this compound had an Arthritis index of 5.8 ± 0.9.

On to `COC(=O)[C@@H](Cc1ccc(O)c(O)c1)NC(=S)/C=C/c1ccc(O)c(O)c1` [Example 15, 3-(3,4-dihydroxy-phenyl)-(R)-2-[3-trans-(3,4-dihydroxy-phenyl)-thioacryloylamino]-propionic acid methyl ester], for which the values for the IC50 in experiment [1] and in experiment [3] were 10 to 25 µM and 17.1 µM, respectively. This compound also showed an Arthritis index in experiment [2] (setting [4]) of 5.7 ± 0.9.

As to `CN(C(=O)/C=C/c1ccc(O)c(O)c1)[C@@H](Cc1ccc(O)c(O)c1)C(=O)O` [Example 37, 3-(3,4-dihydroxy-phenyl)-(S)-2-{[3-trans-(3,4-dihydroxy-phenyl)-acryloyl]-methyl-amino}-propionic acid], the IC50 was 25 to 50 µM in experiment [1] and 17.3 µM in experiment [3]. The compound also gave an Arthritis index in experiment [2] (setting [4]) of 6.7 ± 0.7.
